Three compounds from US20180051346A1, “METHODS AND MEANS FOR SUBTYPING INVASIVE LOBULAR BREAST CANCER” (Stichting Het Nederlands Kanker Instituut-Antoni van …, priority 2015, published 2018) can be followed below.

This test concerns ILC cell lines. In words: Drug sensitivity on the Sanger cell line panel, differential response between IR and HR subtype cell lines. It is filed as cell-based. As to conditions: IR subtype cell lines (10) vs HR subtype cell lines (5); two-sided t-test between the AUC of the dose-response curves; Sanger response data (Garnett et al., 2012). Here is the method: Drug sensitivity was assessed on the Sanger cell line panel (internal version 17). We used the cell lines common in our ILC cell line panel and in the Sanger cell line panel. We used cell line AU565 instead of SK-BR-3, which is derived from the same patient. Among the 262 drugs, we focused our assessment on 88 agents that had measurement in at least three cell lines per subtype. With this dataset, we performed a two-sided t-test between the AUC of the dose-response curves of the cell lines in the two subtypes, correcting for multiple testing with the Benjamini-Hochberg method.
To identify candidate therapeutic options, we profiled a set of 15 ILC cell lines as in vitro models. We used their gene expression profiles to map them to the IR (10 cell lines) and HR (5 cell lines). We then used the response data for 88 drugs on a subset of these cell lines, as provided by the Wellcome Trust Sanger Institute (Garnett et al., 2012. Nature 483: 570-575), to test for differential drug sensitivity between the subtypes. We retained six drugs at an FDR<0.25 (FIG. 2).
As to `N.N.[Cl][Pt][Cl]` [Cisplatin], the “differential drug sensitivity between the subtypes” value is given as “more sensitive”.

Consider Bleomycin, for which the “differential drug sensitivity between the subtypes” value is reported as “more sensitive”.

Turning to `CCc1c2c(nc3ccc(O)cc13)-c1cc3c(c(=O)n1C2)COC(=O)[C@]3(O)CC` [SN-38, (+)-(4S)-4,11-diethyl-4,9-dihydroxy-1H-pyrano[3′,4′:6,7]-indolizino[1,2-b]quinoline-3,14(4H,12H)-dione], the “differential drug sensitivity between the subtypes” value is “more sensitive”.
